Laboratory results taken from US20220268782A1, “METHODS FOR PREDICTING AND TREATING CARDIAC DYSFUNCTION” (INSERM (INSTITUT NATIONAL DE LA SANTÉ EAT DE LA RECHERCHE …, priority 2019, published 2022).

How the values were obtained:
C2C12 myoblasts = assay: Oxidative stress in C2C12 cells (CellROX cytosolic superoxide, MitoSOX mitochondrial superoxide, GSH); assay type: cell-based
Procedure: C2C12 (ATCC® CRL-1772™) myoblasts maintained in DMEM supplemented with L-glutamine (2 mM), penicillin/streptomycin (1%) and 5% fetal bovine serum (FBS) were seeded either at a density of 5×10^4 cells (<50%) per well in 24-well plates or 10^4 cells in 4-well chamber slides. Cells were with L-phenylalanine (1-10 mM)+BH4 (10 μM) and incubation with increasing concentrations of N-acetylcysteine (0.5, 2.5, 5 mM) vs. vehicle overnight as indicated. Cells were analysed for oxidative stress with MitoSOX™ (mitochondrial superoxide; 5 μM, ThermoFisher Scientific), CellROX™ (cytosolic superoxide; 5 μM, ThermoFisher Scientific), gene or protein expression, or various metabolites (see below).
Levels of reduced glutathione (GSH; ThermoFisher), phenylalanine (BioVision) and tyrosine (BioVision) were determined from cells or plasma, with respective agents/kits following the manufacturer's recommendations. Specifically, GSH levels were estimated with the aid of ThiolTracker™ Violet fluorescent probe (ThermoFisher). Plasma and liver phenylalanine levels were determined using an enzyme-coupled, fluorometric method (BioVision). Briefly, samples were deproteinized via trichloroacetate precipitation, neutralised, tyrosinase-treated (to remove tyrosine that may interfere) and diluted to fit in the standard curve. Fluorescence reading took place at 587 nm after excitation at 535 nm. Levels of tyrosine in cells or conditioned media were determined after deproteinization using 10 kDa cut-off columns with an enzyme-coupled, colorimetric method with reading at 491 nm (BioVision).

[1] = tested on: primary adult rat cardiomyocytes; assay: Immunoblot of p21 in primary adult rat cardiomyocytes; assay type: cell-based; conditions: FIG. 1g
Procedure: Male Spargue Dawley rats (9 weeks, 300-350 g) were anesthetised with ketamine and xylazine (100 and 10 mg/kg, respectively) with heparin added (100 UI/kg). Hearts were excised and retrogradely perfused with an oxygenated ([…]) perfusion buffer consisting of NaCl 113 mM, KCl 4.7 mM, KH2PO4 0.6 mM, Na2HPO4 0.6 mM, MgSO4-7H2O 1.2 mM, NaHCO3 12 mM, KHCO3 10 mM, HEPES 10 mM, Taurine 30 mM, phenol red 0.032 mM, D-glucose 5.5 mM, 2,3-butanedionemonoxime 10 mM, pH 7.4) for 2 minutes to wash out the blood from the coronary arteries. Then hearts were perfused with a digestion buffer (perfusion buffer supplemented with 0.1 mg/mL liberase, 0.14 mg/mL trypsine-EDTA and 12.5 μM Ca^2+) for 10-12 minutes. Hearts were then placed in a stopping buffer (perfusion buffer supplemented with 10% NBCS and 12.5 μM Ca^2+). Atria and right ventricles were removed. Left ventricles were dissected into small fragments, then subjected to successive aspirations-reflux. Digested ventricles were filtered through a 250 μm cell strainer. […]
Cells were washed briefly with ice-cold 1×PBS, scraped in 400 μL T-PER lysis buffer (ThermoFisher) supplemented with 0.1 mM phenylmethylsulphonyl fluoride (PMSF) and protease/phosphatase inhibitor cocktail tablet (ThermoFisher). […] Protein concentrations were determined with Bradford assay (Biorad) and lysates were diluted to equal concentration with lysis buffer. […]

[2] = tested on: Myocardial nitric oxide synthase (NOS); assay: Myocardial nitric oxide synthase activity in hearts of BH4-treated mice; assay type: in vivo; conditions: hearts of 12.5-month-old WT mice treated with BH4 or vehicle, FIG. 4i
Procedure: Myocardial nitric oxide synthase (NOS) activity was determined in hearts of 12.5-month-old WT mice treated with BH4 or vehicle using a commercial kit (Biovision). Briefly, pulverized heart aliquots were processed according to the manufacturer's instructions and fluorometric readouts (excitation: 360, emission: 450) were normalised to protein concentration determined by Bradford assay. Activity of recombinant NOS protein served as positive control.

Compound	cytosolic superoxide levels under PA treatment (C2C12 myoblasts; PA plus co-treatment (BH4 10 μM or NAC), FIG. 1f)	reduced glutathione (GSH) levels under PA treatment (C2C12 myoblasts; PA plus co-treatment, data not shown)	PA-induced p21 protein ([1]; PA 5 mM + BH4 10 μM)	myocardial nitric oxide synthase activity [2]	cytosolic superoxide levels (CellROX probe) (C2C12 myoblasts; as a function of PA concentration, FIG. 1e)	p21 protein ([1]; PA 5 mM, 4-hour incubation)
CC(O)C(O)C1CNc2nc(N)[nH]c(=O)c2N1 (stereo not drawn) [BH4, 2-amino-6-(1,2-dihydroxypropyl)-5,6,7,8-tetrahydro-3H-pteridin-4-one]	normalized	restored normal	rescue	without altering		
N[C@@H](Cc1ccccc1)C(=O)O [PA, (S)-2-Amino-3-phenylpropanoic acid]					incrementally increased	selective induction
